Common to all, as to assay type: physicochemical
Data set [1] can be described thus: Long-term and accelerated stability of Form CS2 (XRPD and HPLC purity after storage). The following applies: 7 weeks, open dish, hydrochloride. An excerpt: X-ray powder diffraction pattern in the present disclosure was acquired by a Panalytical Empyrean X-ray powder diffractometer. The parameters of the X-ray powder diffraction method of the present disclosure were as follows: • X-ray Reflection: Cu, Kα. • Kα1 (Å): 1.540598; Kα2 (ÅA): 1.544426 • Kα2/Kα1 intensity ratio: 0.50 • Voltage: 45 (kV) • Current: 40 (mA) • Scan range: from 3.0 to 40.0 degree
High Performance Liquid Chromatography (HPLC) data for purity test in example 4 of the present disclosure were collected from an Agilent 1260 with UV Variable Wavelength Detector (VWD). The HPLC method parameters are as follows: • Column: Waters XBridge C18 150×4.6 mm, 5 μm • Mobile Phase: A: 0.1% TFA in H2O • B: 0.1% TFA in Acetonitrile
• Flow rate: 1.0 mL/min • Injection Volume: 10 μL • Detection wavelength: 270 nm • Column Temperature: 40° C. • Diluent: MeOH/THF (v/v, 6/4)
Three solid samples of Form CS2 were stored under the conditions of 25° C./60% RH, 40° C./75% RH and 60° C./75% RH for 7 weeks in open dishes. XRPD of the samples was tested and the physical stability results are shown in FIG. 7 (from top to bottom: XRPD pattern of Form CS2 before and after being stored under the conditions of 25° C./60% RH, 40° C./75% RH and 60° C./75% RH for 7 weeks). Chemical purity of Form CS2 was tested after stored under the conditions of 25° C./60% RH and 40° C./75% RH for 7 weeks and the results are shown in Table 4.

Data set [2] can be described thus: Hygroscopicity of Form CS2 by dynamic vapor sorption (DVS). The following applies: for Weight gain under 80% RH: 25° C., hydrochloride. As to the method: Dynamic Vapor Sorption (DVS) is measured via a SMS (Surface Measurement Systems Ltd.) intrinsic DVS instrument. Its control software is DVS-Intrinsic control software, and its analysis software is DVS-Intrinsic Analysis software. Typical Parameters for DVS test are as follows: • Temperature: 25° C. • Gas and flow rate: N2, 200 mL/min • dm/dt: 0.002%/min • RH range: 0% RH to 95% RH
Dynamic vapor sorption (DVS) was applied to test hygroscopicity of Form CS2 with about 10 mg of sample. The DVS plot of Form CS2 is depicted in FIG. 9.

Data set [3] can be described thus: Particle size distribution of Form CS2 (laser particle size analyzer). The following applies: wet mode, Isopar G. As to the method:
The particle size distribution data in the present disclosure were acquired by an S3500 laser particle size analyzer of Microtrac. Microtrac S3500 is equipped with an SDC (Sample Delivery Controller). The test is carried out in wet mode, and the dispersion medium is Isopar G. The parameters are as follows:
10-30 mg of Form CS2 and 10 mL of Isopar G (containing 0.2% lecithin) were mixed thoroughly and then transferred into the SDC. The measurement was started when the sample amount indicator is in appropriate position. The average particle diameter calculated by volume, the diameter at which 10% mass is comprised of smaller particles, the diameter at which 50% mass is comprised of smaller particles and the diameter at which 90% mass is comprised of smaller particles were obtained in particle size distribution test.
Explanation of the abbreviations used in the present invention is as follows: • MV: Average particle diameter calculated by volume. • D10: the size in microns below which 10 percent of the particles reside on a volume basis. • D50: the size in microns below which 50 percent of the particles reside on a volume basis, also known as the median diameter. • D90: the size in microns below which 90 percent of the particles reside on a volume basis.

Data set [4] is described as follows: Mechanical stability of Form CS2 (manual grinding, XRPD). The conditions noted are these: ground manually for 5 minutes in a mortar. As to the method:
Solid sample of Form CS2 was ground manually for 5 minutes in a mortar. The XRPD comparison pattern of Form CS2 before and after grinding is depicted in FIG. 8.

Data set [5] in a line: Dynamic solubility of Form CS2 in SGF, FeSSIF, FaSSIF and water. The following applies: for solubility at 1 h / solubility at 4 h / solubility at 24 h: thermodynamic from solid. The method, then: High Performance Liquid Chromatography (HPLC) data for solubility test in example 5 of the present disclosure were collected from an Agilent 1100 with Diode Array Detector (DAD). The HPLC method parameters are as follows: • Column: L005# Waters Xbridge C18, 150×4.6 mm, 5 μm • Mobile Phase: A: 0.1% TFA in H2O • B: 0.1% TFA in Acetonitrile
• Flow rate: 1.0 ml/min • Injection Volume: 5 μl • Detection wavelength: 270 nm • Column Temperature: 40° C. • Diluent: MeOH/THF (v/v, 6/4)
Simulated gastrointestinal fluids such as SGF (Simulated gastric fluids), FaSSIF (Fasted state simulated intestinal fluids) and FeSSIF (Fed state simulated intestinal fluids) are biorelevant media. Solubility in such media is closer to that in human environment, which can reflect the effects of gastrointestinal environment on drug release better.
20 mg of Form CS2 was suspended into 1.5 mL of SGF, 1.5 mL of […], 1.5 mL of […] and 1.5 mL of water to get saturated solutions. After equilibrated for 1 h, 4 h and 24 h, concentrations (mg/mL) of the saturated solutions were measured by HPLC.

The mark [6] stands for this setting: FaSSIF (fasted state simulated intestinal fluid), FaSSIF.
[7] abbreviates: FeSSIF (fed state simulated intestinal fluid), FeSSIF.

The text below walks through data of patent publication US11117876B2, “Crystalline form of ozanimod hydrochloride, and processes for preparation thereof” (RECEPTOS, LLC, priority 2017, dated 2021).

The solubility is the dissolved amount per volume that the medium holds. The Solubility is how much of the substance goes into solution per volume. Low values mean a poorly soluble substance, high ones a readily soluble substance.

“Also recorded” adds a separate entry of the source. Structures can show the parent of a compound that is named as a salt.

Consider `CC(C)Oc1ccc(-c2nc(-c3cccc4c3CC[C@@H]4NCCO)no2)cc1C#N` [Form CS2, ozanimod hydrochloride], for which the “Crystalline form change after storage (XRPD)” value in data set [1] (25° C./60% RH), in data set [1] (40° C./75% RH) and in data set [1] (60° C./75% RH) was “no form change; also recorded: doesn't change” in each case. For the same molecule, the “Weight gain under 80% RH” value in data set [2] and in data set [2] (listed as Form CS2 of ozanimod hydrochloride) was 2.34% in each case. Besides, the “Hygroscopicity (in words)” value in data set [2] (80% RH) is on record as “low”. For the same molecule, the D10 in data set [3] is 7.6 μm. In addition, in data set [3], the D50 is given as 44.90 μm. This molecule also yielded a D90 in data set [3] of 149.4 μm. For the same molecule, the “Particle size distribution (in words)” value in data set [3] is given as “uniform”. For the same molecule, the “MV (average particle diameter calculated by volume)” value in data set [3] (hydrochloride) is on record as “about 64.22 μm”; in data set [3] (listed as CS2, hydrochloride), 64.22 μm. Besides, the “Crystalline form change after grinding (XRPD)” value in data set [4] was “doesn't change”. The solubility at 1 h was 3000 µg/mL in data set [5] (setting [6]) and 300 µg/mL in data set [5] (setting [7]). Besides, the solubility at 4 h was 3000 µg/mL in data set [5] (FaSSIF (fasted state simulated intestinal fluid), FaSSIF, 4 h); 280 µg/mL in data set [5] (FeSSIF (fed state simulated intestinal fluid), FeSSIF, 4 h); 2200 µg/mL in data set [5] (water, H2O, 4 h). Moreover, the solubility at 24 h in data set [5] (setting [6]) was 3100 µg/mL; in data set [5] (setting [7]), 320 µg/mL; in data set [5] (SGF (simulated gastric fluid), simulated gastric fluid, SGF), 240 µg/mL; in data set [5] (water, H2O) it was 2400 µg/mL. Moreover, in data set [5] (SGF, 4 h), the Solubility was 210 µg/mL. For the same molecule, the “Solubility (in words)” value in data set [5] (in SGF, FeSSIF, FaSSIF and H2O) is on record as “high”.
